Laboratory results: a melting point compilation (Tetko et al.; mined from patent text by program, amines drawn as free bases though some values may be those of a salt)

Compound `CCN(CC)c1nc(-c2ccc3c(c2)OCO3)nc2sc(C#N)c(C)c12` has a melting point of 199 to 201 °C.
For `CN1CCN(c2c(F)c(N)c3c(=O)c(C(=O)O)cn(C4CC4)c3c2F)CCC1=O`, the melting point was 281 to 283 °C.
Compound `CN1C(=O)CN=C(c2ccccc2F)c2cc(NC(=O)NCCO)ccc21` has a melting point of 156 to 160 °C.
Compound `CC(=O)OCC1OC(n2c(Cl)nc3cc(Cl)c(Cl)cc32)C(O)C1O` (configuration not stated) has a melting point of 82 to 87 °C.
In the case of `COc1ccccc1CN[C@H]1CCCN(Cc2ccccc2)[C@H]1c1ccccc1` (relative stereo), the melting point is reported as 68 to 70 °C.
With `COC(=O)c1ccc(NC2CC2)c(S(N)(=O)=O)c1` the melting point was 158 to 161 °C.
In the case of `NC(=O)[C@@H]1[C@H](Nc2c(Br)cnc3[nH]c(-c4ccc(N5CCOCC5)cc4)nc23)[C@H]2C=C[C@@H]1C2`, the melting point is reported as 283 to 284 °C.
For `O=C(NC(CC12CC3CC(CC(C3)C1)C2)Nc1c(Nc2cccnc2)c(=O)c1=O)c1ccccc1Cl` (configuration not stated), the melting point was 224 to 225 °C.
With `Nc1nc(Cl)c(C(F)(F)F)cc1Cl` the melting point was 110 to 112 °C.
`O=C(NCC1CC(=O)N(Cc2ccccc2)c2ccccc2N1C(=O)CN1C(=O)c2ccccc2C1=O)OCc1ccccc1` (configuration not stated) gave a melting point of 219 to 221 °C.
Compound `CN1C(=O)C2(COc3cc4c(cc32)OCCO4)c2c(NS(C)(=O)=O)cccc21` (configuration not stated) has a melting point of 184 to 186 °C.
Work on `O=C(NC(Cc1cccc(C(F)(F)F)c1)C(=O)N1CCSC1)c1cc2cc(Cl)ccc2[nH]1` (configuration not stated) yielded a melting point of 205 to 207 °C.
`COC(=S)c1cc(N)ccc1C` gave a melting point of 96 to 98 °C.
For `CC(=O)Nc1ccc(N2CCC(=O)CC2)cc1`, the melting point was 158 to 159 °C.
Work on `Cc1oc(C=Cc2cccc(Cl)c2)nc1CC(=O)O` yielded a melting point of 214 to 215 °C.
With `COc1ccc(C(=O)Nc2c(Cl)cncc2Cl)c2c3ccccc3n(Cc3ccc(F)cc3)c12` the melting point was 222 to 225 °C.
`COc1cc(OC)nc(N2CCN(Cc3ccc(C(C)(C)NC(C)=O)cc3)CC2)n1` showed a melting point of 199 to 202 °C.
`CCCCCCCCCCCCCCCCSCC(CO)n1nnnc1C` (configuration not stated) gave a melting point of 77 to 78 °C.
`CC12CCC(C(=O)N(CCCCN3CCN(c4ccccn4)CC3)C1=O)C2(C)C` (configuration not stated) gave a melting point of 96 to 97 °C.
`O=C(Nc1cccc(C(=O)Nc2nnn[nH]2)c1)NC1N=C(c2ccccc2F)c2ccccc2N(CC(=O)N2CC3CCC(CC3)C2)C1=O` (racemic) showed a melting point of 193 to 196 °C.
Work on `N#Cc1cc(N2C=CN=CC2)c[nH]c1=O` yielded a melting point greater than 250 °C.
`CC(=O)N1N=C2C(=Cc3ccccc3)CS(=O)(=O)CC2C1c1ccccc1` (configuration not stated) showed a melting point of 218 to 220 °C.
In the case of `Cc1ccc(-c2cc(N3CCCCC3)c(C#N)c3c2-c2ccccc2C3)cc1`, the melting point is reported as 162 to 164 °C.
For `CCCCCCCCCCCC(C(=O)NN)C(C(=O)Nc1c(OC)cc(OC)cc1OC)c1ccccc1` (configuration not stated), the melting point was 175 to 180 °C.
Compound `N#CC1C(=O)NC(=O)C12C(=O)N(Cc1ccc(Br)cc1F)c1ccccc12` (configuration not stated) has a melting point of 208 to 210 °C.
`Cc1nnc(-c2ccccc2)c2nc(OCc3ncnn3C)c(C3CCC3)n12` gave a melting point of 160 °C.
In the case of `Nc1ccccc1Oc1ccccc1Cl`, the melting point is reported as 44 to 45 °C.
Compound `O=C1CC(c2coc3ccccc23)=Nc2cc3c(cc21)OCO3` has a melting point greater than 315 °C.
Work on `CC(C)N(C(=O)CCCCCC(=O)O)c1ccccc1` yielded a melting point of 62 to 63 °C.
`N[C@@]1(C(=O)O)C[C@H](NC(=O)Nc2ccccc2F)[C@H]2[C@H](C(=O)O)[C@H]21` (relative stereo) showed a melting point greater than 270 °C.
For `COc1ccc2c(c1)CCC[C@H]2NC(=O)c1cccc(Cl)c1O`, the melting point was 111 to 113 °C.
`Clc1ccc(OC(c2cccnc2)n2cncn2)c(Cl)c1` (configuration not stated) gave a melting point of 75.5 to 78 °C.
Compound `CCc1cc(N(C)C(=O)N2CCN(c3cc(OC)cc(OC)c3)CC2)c(OC)nc1C` has a melting point of 78 to 79 °C.
For `O=C(N[C@H]1CCCNC1=O)c1ccc(C(F)(F)F)cc1`, the melting point was 212 to 214 °C.
For `CCc1noc(-c2ncc3[nH]c4cccc(CN5CCOCC5)c4c3c2COC)n1`, the melting point was 161 to 163 °C.
For `COC(=O)c1ccc(Cc2cn(C)c3ccc(C(=O)OC)cc23)c(OC)c1`, the melting point was 137 to 140 °C.
In the case of `COc1ccc(C(=O)NC(=O)Nc2ccc3c(c2)NC(=O)/C3=C\c2ccncc2)cc1`, the melting point is reported as 270 to 275 °C.
`Cc1ccc(NC(=O)N2CC(C)(C)NC(C)(C)CC2=O)cc1` showed a melting point of 126 °C.
`Cc1cc(C)nc(NC(=O)NS(=O)(=O)c2ccccc2C(=O)O)n1` gave a melting point of 160 °C.
`CCOC(=O)c1cccc(Nc2nc3ccccc3o2)c1` showed a melting point of 168 to 170 °C.
For `CON(Cc1ccc(F)cc1)C(=O)c1nc2n(c(=O)c1OCc1ccccc1)CCOC2(C)C`, the melting point was 141 °C.
`Cc1ccc(O)c(F)n1` showed a melting point of 133 to 135 °C.
Compound `CCCc1cc2c(=O)[nH]c(C(=O)OCC)nc2s1` has a melting point of 169 to 170 °C.
`CC(C)c1cccc(C(C)C)c1NC(=O)CS(=O)(=O)Nc1c(C(C)C)cccc1C(C)C` showed a melting point of 202 to 205 °C.
Compound `COc1ccc(Cl)c(Oc2c(CO)nc(N3CCOCC3)nc2NS(=O)(=O)c2ccc(C(C)(C)C)cc2)c1` has a melting point of 103 °C.
With `NNC(=O)c1ncn2c1[C@@H]1CCCN1C(=O)c1sccc1-2` the melting point was greater than 260 °C.
In the case of `CCCCN(CCCC)S(=O)(=O)N[C@@H](Cc1ccc(NC(=O)c2c(Cl)cncc2Cl)cc1)C(=O)O`, the melting point is reported as 167 °C.
